The source of these data is patent US12495798B2, “Nicotinamide compound and herbicidal composition comprising compound” (KOREA RESEARCH INSTITUTE OF CHEMICAL TECHNOLOGY, priority 2019, dated 2025).

What all share (type): in vivo
For one series, the system named is sorghum. Description: Herbicidal activity test against upland field weeds (foliar treatment test). The note with it: 50 g ai/ha, scale 0-100; for plant injury at 50 g/ha: Sorghum. Set-up: key to Foliar treatment herbicidal activity, Sorghum: 0 (no control); 100 (complete control). As to the method:
(§1) Experimental Example 1: Herbicidal Activity Test Against Upland Field Weeds (Foliar Treatment Test) Foliar treatment was performed as follows: After filling a square plastic pot having a surface area of 350 cm^2 with horticultural soil, seeds (10˜15 grains) or rootstocks (2 pieces) of 5 kinds of grassy weeds of sorghum, barnyard grass, quack grass, crabgrass, fall panicum, and 5 kinds of broadleaf weeds of black nightshade, indian jointvetch, velvetleaf, cocklebur, bindweed, which had been stored in a low temperature (6° C.), were sown. After growing for a certain period in greenhouse conditions (average temperature 30±5° C., light/dark=14/10 hours), test compound solutions were made by diluting with a preparation solution (including 50% acetone, 0.1% Tween-20) so that the final treatment amount of the test compounds was 50 or 75 g a.i./ha. The prepared test compound solution was used for treating foliage by hand-spraying 14 mL per pot in a fume hood. After the treatment, it was managed under the same greenhouse conditions as above, and after 14 days (after 21 days if necessary), the external symptoms and efficacy were investigated according to the scale of 0 (no control) to 100 (complete control). The results of Table 7 were obtained by evaluating weed control value to the untreated control by conducting visual assessment.

The next series deals with barnyard grass. Described as above. The note with it: Echinochloa crus-galli, 50 g ai/ha, scale 0-100. As to the method: as §1
For a further series, the system named is quack grass. Described as above. Set-up: key to Foliar treatment herbicidal activity, quack grass: 0 (no control); 100 (complete control). The note with it: 50 g ai/ha, scale 0-100. As to the method:
as §1

Another series deals with crabgrass. Described as above. The note with it: 50 g ai/ha, scale 0-100; for pest or weed control at 50 g/ha: Digitaria sanguinalis. Set-up: key to Foliar treatment herbicidal activity, Crabgrass: 0 (no control); 100 (complete control). How it is done:
as §1

The test system of another series is fall panicum. The description is as above. The note with it: Panicum dichotomiflorum, 50 g ai/ha, scale 0-100. How it is done: as §1
The test system of a further series is black nightshade. Described as above. The note with it: Solanum nigrum, 50 g ai/ha, scale 0-100. As to the method: as §1
The subject of the next series is indian jointvetch. The series is described as above. The conditions noted are these: 50 g ai/ha, scale 0-100. On the set-up: key to Foliar treatment herbicidal activity, Indian jointvetch: 0 (no control); 100 (complete control). How it is done:
as §1

In a further series the test system is velvetleaf. The description is as above. The conditions noted are these: Abutilon theophrasti, 50 g ai/ha, scale 0-100, read-out: Foliar treatment herbicidal activity, velvet leaf. How it is done: as §1
The subject of another series is cocklebur. The series is described as above. The note with it: Xanthium strumarium, 50 g ai/ha, scale 0-100. As to the method: as §1
A further series concerns bindweed. The description is as above. The conditions noted are these: 50 g ai/ha, scale 0-100. How it is done: as §1
Another series relates to corn. Briefly: Phytotoxicity test for upland field crops (foliar treatment test). On the set-up: key: 0 (no harm); 9 (complete withered). How it is done:
(§2) Experimental Example 3: Phytotoxicity Test for Upland Field Crops (Foliar Treatment Test)
(§3) Foliar treatment was performed for grown crops and weeds in a square plastic pot having a surface area of 50 cm^2 filled with horticultural soil. As a fertilizer per pot, 0.5 g of horticultural mixed fertilizer (N:P:K=17:21:17) was treated by mixing in the upper soil. Five kinds of crops such as rice, wheat, corn, soybean, and cotton were sown in each pot, and after growing for a certain period in greenhouse conditions (average temperature 30±5° C., light/dark=14/10 hours), test compound solutions were made by diluting with the diluent (33% acetone, 0.1% Tween-20) so that the final treatment amount of the test compounds was 19˜300 g a.i./ha. The prepared test compound solutions were treated using a spray booth (SB6-016) at a treatment amount of 100 ml per 1 m^2 of treatment area. The treated plants were managed under the same greenhouse conditions as above, and external symptoms and phytotoxicity were investigated 7 and 14 days after treatment (after 21 days if necessary). In the evaluation of the phytotoxicity for the crop, the grade of 0 (no harm) to 9 (complete withered) was used. The results of Table 9 were obtained by evaluating crop phytotoxicity value to the untreated control.

The next series deals with wheat. The description is as above. On the set-up: key: 0 (no harm); 9 (complete withered). As to the method: as §2, §3
The mark [1] stands for this setting: 50 g ai/ha, Corn (7 days after treatment).
The mark [2] stands for this setting: 50 g ai/ha, Corn (14 days after treatment).
[3] abbreviates: 100 g ai/ha, Corn (7 days after treatment).
[4] abbreviates: 100 g ai/ha, Corn (14 days after treatment).
Where [5] appears, read: 50 g ai/ha, Wheat (7 days after treatment).
The mark [6] stands for this setting: 50 g ai/ha, Wheat (14 days after treatment).
Setting [7] is: 100 g ai/ha, Wheat (7 days after treatment).
Setting [8] is: 100 g ai/ha, Wheat (14 days after treatment).

On to `CCn1nnnc1NC(=O)c1ccc(C(F)(F)F)nc1COCc1nc(C(F)(F)F)n(C)n1` [Compound No. 2-119, N-(1-ethyl-1H-tetrazol-5-yl)-2-(((1-methyl-5-(trifluoromethyl)-1H-1,2,4-triazol-3-yl)methoxy)methyl)-6-(trifluoromethyl)nicotinamide], for which the plant injury at 50 g/ha in the series on sorghum is 20%. Also, the pest or weed control at 50 g/ha with barnyard grass is 95%; in the series on quack grass, 30%; in the series with crabgrass, 95%; in the series on fall panicum, 90%; in the series on black nightshade, 98%; in the series on indian jointvetch it was 60%. In addition, the pest or weed control at 50 g/ha was 50% in the series on velvetleaf, 90% with cocklebur and 80% in the series with bindweed. In addition, the “Foliar treatment phytotoxicity, Corn” value in the series with corn (setting [1]), in the series on corn (setting [2]), in the series on corn (setting [3]) and in the series with corn (setting [4]) was 0 in each case. Besides, the “Foliar treatment phytotoxicity, Wheat” value in the series with wheat (setting [5]), with wheat (setting [6]), in the series on wheat (setting [7]) and with wheat (setting [8]) was 0 throughout.

Turning to `CCCn1nnnc1NC(=O)c1ccc(C(F)(F)F)nc1COCc1ncn(C)n1` [Compound No. 2-114, 2-(((1-methyl-1H-1,2,4-triazol-3-yl)methoxy)methyl)-N-(1-propyl-1H-tetrazol-5-yl)-6-(trifluoromethyl)nicotinamide], the “Foliar treatment herbicidal activity, Sorghum” value in the series with sorghum is 0. Further, the pest or weed control at 50 g/ha is 60% in the series on barnyard grass; 10% in the series on quack grass; 40% in the series on fall panicum; 95% with black nightshade; 20% in the series on indian jointvetch; 70% with velvetleaf. Moreover, the figures for the pest or weed control at 50 g/ha in the series on cocklebur and with bindweed were 90% and 80%, respectively. The “Foliar treatment herbicidal activity, Crabgrass” value in the series with crabgrass is 0. For the same compound, the “Foliar treatment phytotoxicity, Corn” value in the series with corn (setting [1]) stood at 1; with corn (setting [2]), 0; with corn (setting [3]) it was 2; in the series on corn (setting [4]), 0. Besides, the “Foliar treatment phytotoxicity, Wheat” value in the series on wheat (setting [5]) is 1; in the series with wheat (setting [6]) it was 0; in the series with wheat (setting [7]) it was 2; in the series with wheat (setting [8]), 1.

Compound `C=C(C)c1nc(COCc2nc(C(F)(F)F)ccc2C(=O)Nc2nnnn2C)nn1C` [Compound No. 2-128, N-(1-methyl-1H-tetrazol-5-yl)-2-(((1-methyl-5-(prop-1-en-2-yl)-1H-1,2,4-triazol-3-yl)methoxy)methyl)-6-(trifluoromethyl)nicotinamide] yielded a plant injury at 50 g/ha in the series on sorghum of 20%. For the same compound, the pest or weed control at 50 g/ha with barnyard grass was 60%; with crabgrass, 60%; with fall panicum, 70%; in the series with black nightshade, 90%; in the series with velvetleaf, 70%; with cocklebur, 50%. Also, the pest or weed control at 50 g/ha in the series with bindweed was 40%. In addition, the “Foliar treatment herbicidal activity, quack grass” value in the series with quack grass came to 0. For the same compound, the “Foliar treatment herbicidal activity, Indian jointvetch” value in the series with indian jointvetch is 0. For the same compound, the “Foliar treatment phytotoxicity, Corn” value in the series on corn (setting [1]) came out at 1; with corn (setting [2]) it was 0; in the series with corn (setting [3]) it was 2; with corn (setting [4]), 0. The “Foliar treatment phytotoxicity, Wheat” value with wheat (setting [5]), in the series on wheat (setting [6]), with wheat (setting [7]) and in the series on wheat (setting [8]) was 0 each time.
